Reference: US20210046139A1, “VEGETATION WATERS AND USES THEREOF” (FATTORIA LA VIALLA DI GIANNI, ANTONIO E BANDINO LO FRANCO - …, priority 2018, published 2021)
Marks after values point to notes of the source that are not given here.

Tests used:
Format in all cases: in vivo, Sprague-Dawley rats
STZ diabetic rats [1] = assay: Plasma total cholesterol, HDL and triglycerides; details: 50 mg/kg/day, 5 weeks, mean ± S.E.
Source text: A well-established model of streptozotocin (STZ)-induced diabetes in rats was used. Streptozotocin is a glucosamine derivative of nitrosurea which selectively destroys the β cells of the pancreatic islets and causes the development of diabetes with hyperglycemia and glycosuria. The model shares a series of characteristics with human diabetic complications at both a functional level and a biochemical level, such as, for example, a reduced nervous conduction, loss of small-diameter sensory nerve fibers in the skin, reduction in Na+ and K+-ATPase activity and early alterations of the thermal and mechanical nociceptive thresholds. In this study, diabetes was induced in 24 rats with a single intraperitoneal injection of 60 mg/kg of STZ dissolved in a sodium citrate buffer (pH 4.5). 24 rats injected only with the vehicle were used as non-diabetic controls. Hyperglycemia was confirmed by measuring glycosuria 72 hours after the injection of STZ using Keto-Diabur strips (KD-5000; Roche Diagnostics Spa, Italy). Only the animals with glycosuria >5% were classified as diabetic and included in the study. […] The animals were then randomized to receive the concentrate of the invention at an HT equivalent dose of 50 mg/kg/day or 50 mg/kg/day of pure HT in drinking water, according to the following treatment groups: The daily dose of compounds was administered starting from the 7th week after the injection of STZ or the vehicle. The treatment lasted 5 weeks and urine samples were taken. The animals were then sacrificed and the plasma, kidneys and sciatic nerves were removed. The sacrifice took place within 2 hours after the last administration of the concentrate, HT or the vehicle. At the end of the 5-week treatment period, urine and plasma were collected to measure the level of triglycerides (TG), total cholesterol (TC), high-density lipoprotein (HDL) and other parameters using commercially available diagnostic kits.

[2] = Body weight, daily food and water intake in STZ diabetic and control rats; details: 5 weeks; for BODY WEIGHT: 50 mg/kg/day (HT equivalent) in drinking water; for BODY WEIGHT / FOOD INTAKE: mean ± S.E.; for WATER INTAKE / FOOD INTAKE: 50 mg/kg/day
Source text: (§1) Use was made of 48 male Sprague-Dawley rats (Harlan, Italy) with a weight comprised from 180-200 g. A well-established model of streptozotocin (STZ)-induced diabetes in rats was used. Streptozotocin is a glucosamine derivative of nitrosurea which selectively destroys the β cells of the pancreatic islets and causes the development of diabetes with hyperglycemia and glycosuria. The model shares a series of characteristics with human diabetic complications at both a functional level and a biochemical level, such as, for example, a reduced nervous conduction, loss of small-diameter sensory nerve fibers in the skin, reduction in Na+ and K+-ATPase activity and early alterations of the thermal and mechanical nociceptive thresholds. In this study, diabetes was induced in 24 rats with a single intraperitoneal injection of 60 mg/kg of STZ dissolved in a sodium citrate buffer (pH 4.5). 24 rats injected only with the vehicle were used as non-diabetic controls. Hyperglycemia was confirmed by measuring glycosuria 72 hours after the injection of STZ using Keto-Diabur strips (KD-5000; Roche Diagnostics Spa, Italy). Only the animals with glycosuria >5% were classified as diabetic and included in the study. […] The animals were then randomized to receive the concentrate of the invention at an HT equivalent dose of 50 mg/kg/day or 50 mg/kg/day of pure HT in drinking water, according to the following treatment groups: The daily dose of compounds was administered starting from the 7th week after the injection of STZ or the vehicle. The treatment lasted 5 weeks and urine samples were taken. The animals were then sacrificed and the plasma, kidneys and sciatic nerves were removed. The sacrifice took place within 2 hours after the last administration of the concentrate, HT or the vehicle. During the trial, the rats were weighed weekly to monitor their weight gain/loss. Hyperglycemia was confirmed in every rat by measuring the glucose level in the blood taken from the vein of the tail with a suitable apparatus (Glucomen, Menarini, Italy), 15 days after the injection of STZ. A plasma glucose level above 300 mg/dL was defined as the hyperglycemia threshold for defining the animals as diabetics.

STZ diabetic rats [3] = assay: Plasma glucose and glycated hemoglobin (HbA1c); details: for HbA1c / PLASMA GLUCOSE: 50 mg/kg/day, 5 weeks, mean ± S.E.
Source text: as §1, with “A” for “Use was made of 48 male Sprague-Dawley rats (Harlan, Italy) with a weight comprised from 180-200 g. A”, “diabetics. At the end of the 5-week treatment period, urine and plasma were collected to measure the level of triglycerides (TG), total cholesterol (TC), high-density lipoprotein (HDL) and other parameters using commercially available diagnostic kits.” for “diabetics.”

[4] = non-diabetic control rats (CTRL)

With OCCc1ccc(O)c(O)c1 [HT, hydroxytyrosol] the “PLASMA HDL” value (STZ diabetic rats [1]; STZ diabetic rats) was 48.7 ± 1.6 mg/dL, the “PLASMA TC” value (STZ diabetic rats [1]; STZ diabetic rats) was 118.1 ± 3.0 mg/dL and the “PLASMA TG” value (STZ diabetic rats [1]; STZ diabetic rats) was 457.1 ± 60.7 mg/dL. The “PLASMA HDL” value (STZ diabetic rats [1]; [4]) was 27.0 ± 0.4 mg/dL, the “PLASMA TC” value (STZ diabetic rats [1]; [4]) was 84.4 ± 2.1 mg/dL and the “PLASMA TG” value (STZ diabetic rats [1]; [4]) was 111.5 ± 8.6 mg/dL. The “BODY WEIGHT” value ([2]; STZ diabetic rats) was 216.6 ± 13.0 g, the “WATER INTAKE” value ([2]; STZ diabetic rats) was 170.1* ml/24 h and the “FOOD INTAKE” value ([2]; STZ diabetic rats) was 33.3 ± 3.7 g/24 h. For the same compound, the “BODY WEIGHT” value [2, 4] was 450.4 ± 16.4 g, the “WATER INTAKE” value [2, 4] was 69.5 ml/24 h and the “FOOD INTAKE” value [2, 4] was 20.6 ± 0.9 g/24 h. The “reduction in HbA1c (glycated hemoglobin)” value (STZ diabetic rats [3]; STZ diabetic rats vs. untreated diabetic rats) was 20%, the HbA1c (STZ diabetic rats [3]; STZ diabetic rats) was 52.3 ± 5.3 mM/mol and the “PLASMA GLUCOSE” value (STZ diabetic rats [3]; STZ diabetic rats) was 729.6 ± 36.5 mg/dL. For the same compound, the HbA1c (STZ diabetic rats [3]; [4]) was 16.7 ± 0.2 mM/mol and the “PLASMA GLUCOSE” value (STZ diabetic rats [3]; [4]) was 186.1 ± 3.2 mg/dL.
